# Results from patent US6939887B2, “Benzimidazolidinone derivatives” (Sumitomo Pharmaceuticals Co., Ltd., priority 2001, dated 2005).
# Where a name gives a salt, the structure may show the parent alone.
# Tested on: pituitary cells (growth hormone release)
# Assay: GH release promoting activity in cultured rat pituitary cells (GH level of supernatant by RIA)
# Format: cell-based, rat (Wistar/ST)
# Conditions: compound concentration 10000 nM, 15 min at 37° C.
# Description: Benzimidazolidinone derivatives of the present invention were evaluated for their growth hormone (GH) release promoting activity by reference to the method described in a literature (R. G. Smith et al., Science, 260, 1640 (1993)).
# Pituitary glands removed from 7-week-old male Wistar/ST rats were washed three times with HBSS(−) and the tissue was minced into small pieces (ca. 1 mm square) using a pair of scissors. The tissues were transferred to a 15 ml round-bottom centrifuge tube and washed three times with HBSS(−) (10 ml). An enzyme solution (0.1 ml per one pituitary gland) was added and enzymatic digestion was started in a water bath at 37° C. During the process, the mixture was pipetted every 5 minutes and the treatment was continued for ca 20-30 min until the cells were dispersed. The resulting cell suspension was centrifuged at 1200 rpm for 2-3 min at room temperature and the supernatant was discarded. A culture medium (8 ml) was added. Similar procedure was repeated twice and the dispersed cells were washed. The cells were plated in a 96-well plate (1×10^4 cells/100 μl/well) and incubation was started at 37° C. under 5% CO2 atmosphere.
# Three days after the start of the culture, the supernatant was discarded and an assay medium was added. The cells were incubated for 1.5 h and washed once with the assay medium. A test compound solution was added and the cells were reacted at 37° C. for 15 min in an incubator under 5% CO2. The supernatant was recovered and the GH level thereof was measured by RIA.
# A sample (50 μl) diluted with RIA buffer (1% BSA, 0.1% NaN3 and 25 mM EDTA/PBS (pH 7.6)), [^125I]-labeled GH solution (50 μl, ca. 10,000 cpm), and rabbit antiserum (diluted 1,000-fold) against rat GH (50 μl, Biogenesis Co) were placed in each well of a 96-well plate for RIA (Coster Co) and the mixture was reacted for 3 days at 4° C. Cell membrane fractions containing protein A were added and the mixture was allowed to stand for 20 min and centrifuged. The supernatant was recovered and the precipitates were washed with the RIA buffer. The ^125I amount was measured. The GH level of the sample was calculated from the standard curve drawn using the standard GH.
# The composition of the culture medium was DMEM containing 10% horse serum, 2.5% fetal bovine serum, 1% nonessential amino acids, 1% antibiotics. The composition of the assay medium was 25 mM HEPES/culture medium (pH 7.3). The test compound solution was prepared by adding a compound solution (1 μl), adjusted to 1000-fold concentration with DMSO, to an assay medium (1 ml). Collagenase (400 mg), DNase type I (1 mg), and BSA (1 g) were dissolved in a 25 mM HEPES buffer (pH 7.4, 40 ml) containing 0.8% NaCl, 0.037% KCl, 0.9% glucose, 1% streptomycin-penicillin and 0.7 mM Na2HPO4, and 1 mg/ml CaCl2 (226 μl) was added. The resulting solution was adjusted to a final volume of 50 ml by adding a HEPES buffer and sterilized by filtration through a 0.22 μm filter and used as the enzyme solution.
# The GH release promoting activity of the compounds of Examples is shown in the following. For the activity, the ratio of GH level of the supernatant in the presence of the test compound (compound concentration 10000 nM) to GH level of supernatant in the absence of the compound (GH level of supernatant in the presence of the compound/GH level of supernatant in the absence of the compound).
row,Structure (SMILES),GH release promoting activity = (GH level of supernatant in the presence of the compound)/(GH level of supernatant in the absence of the compound)
1,"CCN(CC)CCn1c(=O)n(Cc2cccc(Cl)c2)c2c(C(F)(F)F)cc(C(N)=O)cc21 [Example 3, 1-(3-chlorobenzyl)-3-[2-(diethylamino)ethyl]-2-oxo-7-(trifluoromethyl)-2,3-dihydro-1H-benzimidazole-5-carboxamide trifluoroacetate]",1.2
2,"CCN(CC)CCn1c(=O)n(Cc2ccccc2Cl)c2c(C(F)(F)F)cc(C(N)=O)cc21 [Example 5, 1-(2-chlorobenzyl)-3-[2-(diethylamino)ethyl]-2-oxo-7-(trifluoromethyl)-2,3-dihydro-1H-benzimidazole-5-carboxamide trifluoroacetate]",1.3
3,"CCN(CC)CCn1c(=O)n(-c2ccc(Cl)cc2)c2c(C(F)(F)F)cc(C(N)=O)cc21 [Example 7, 1-(4-chlorophenyl)-3-[2-(diethylamino)ethyl]-2-oxo-7-(trifluoromethyl)-2,3-dihydro-1H-benzimidazole-5-carboxamide trifluoroacetate]",3.0
4,"CCN(CC)CCn1c(=O)n(-c2ccc(Cl)cc2Cl)c2c(C(F)(F)F)cc(C(N)=O)cc21 [Example 8, 1-(2,4-dichlorophenyl)-3-[2-(diethylamino)ethyl]-2-oxo-7-(trifluoromethyl)-2,3-dihydro-1H-benzimidazole-5-carboxamide trifluoroacetate]",2.1
5,"CCN(CC)CCn1c(=O)n(Cc2cccc(C(F)(F)F)c2)c2c(C(F)(F)F)cc(C(N)=O)cc21 [Example 9, 3-[2-(diethylamino)ethyl]-2-oxo-7-(trifluoromethyl)-1-[3-(trifluoromethyl)benzyl]-2,3-dihydro-1H-benzimidazole-5-carboxamide trifluoroacetate]",1.3
6,"CCN(CC)CCn1c(=O)n(Cc2ccccc2C)c2c(C(F)(F)F)cc(C(N)=O)cc21 [Example 16, 3-[2-(diethylamino)ethyl]-1-(2-methylbenzyl)-2-oxo-7-(trifluoromethyl)-2,3-dihydro-1H-benzimidazole-5-carboxamide trifluoroacetate]",1.0
